Assay results reported in ChEMBL document CHEMBL1153186, “In vitro antitubercular and antimicrobial activities of 1-substituted quinoxaline-2,3(1H,4H)-diones” (2010).

Experiments:
Type in all cases: functional
Conditions in all cases: read-out: IZ
[1] = test system: Aspergillus niger; assay: Antifungal activity against Aspergillus niger at 100 ug/disk by agar plate disk diffusion method
[2] = test system: Pseudomonas aeruginosa; assay: Antibacterial activity against Pseudomonas aeruginosa at 100 ug/disk by agar plate disk diffusion method
[3] = test system: Proteus vulgaris; assay: Antibacterial activity against Proteus vulgaris at 100 ug/disk by agar plate disk diffusion method
[4] = test system: Candida albicans; assay: Antifungal activity against Candida albicans at 100 ug/disk by agar plate disk diffusion method
[5] = test system: Escherichia coli; assay: Antibacterial activity against Escherichia coli at 100 ug/disk by agar plate disk diffusion method
[6] = test system: Staphylococcus aureus; assay: Antibacterial activity against Staphylococcus aureus at 100 ug/disk by agar plate disk diffusion method
[7] = test system: Candida albicans; assay: Antifungal activity against Candida albicans at 50 ug/disk by agar plate disk diffusion method
[8] = test system: Aspergillus niger; assay: Antifungal activity against Aspergillus niger at 50 ug/disk by agar plate disk diffusion method
[9] = test system: Pseudomonas aeruginosa; assay: Antibacterial activity against Pseudomonas aeruginosa at 50 ug/disk by agar plate disk diffusion method
[10] = test system: Proteus vulgaris; assay: Antibacterial activity against Proteus vulgaris at 50 ug/disk by agar plate disk diffusion method
[11] = test system: Staphylococcus aureus; assay: Antibacterial activity against Staphylococcus aureus at 50 ug/disk by agar plate disk diffusion method
[12] = test system: Escherichia coli; assay: Antibacterial activity against Escherichia coli at 50 ug/disk by agar plate disk diffusion method

**Q.** With `CC(=O)n1c(=O)c(=O)[nH]c2ccccc21` as the compound, how does the zone of inhibition at 100 µg/disc [1] read?
**A.** 20 mm

**Q.** And the zone of inhibition at 100 µg/disc [2]?
**A.** 29 mm

**Q.** What about the zone of inhibition at 100 µg/disc [3] of the same compound?
**A.** 26 mm

**Q.** What about the zone of inhibition at 100 µg/disc [4] of the same compound?
**A.** 0 mm

**Q.** And the zone of inhibition at 100 µg/disc [5]?
**A.** 24 mm

**Q.** What about the zone of inhibition at 100 µg/disc [6] of the same compound?
**A.** 20 mm

**Q.** `O=c1[nH]c2ccccc2n(Cn2cnc3ccccc32)c1=O` was tested. Which zone of inhibition at 100 µg/disc [1] did it give?
**A.** 25 mm

**Q.** What about the zone of inhibition at 100 µg/disc [2] of the same compound?
**A.** 35 mm

**Q.** And the zone of inhibition at 100 µg/disc [3]?
**A.** 32 mm

**Q.** And the zone of inhibition at 100 µg/disc [4]?
**A.** 18 mm

**Q.** And the zone of inhibition at 100 µg/disc [5]?
**A.** 33 mm

**Q.** What about the zone of inhibition at 100 µg/disc [6] of the same compound?
**A.** 36 mm

**Q.** What does the source list for `COc1cc(O)ccc1/C=C/C(=O)n1c(=O)c(=O)[nH]c2ccccc21`?
**A.** zone of inhibition at 100 µg/disc [1]: 16 mm; zone of inhibition at 100 µg/disc [2]: 18 mm; zone of inhibition at 100 µg/disc [3]: 18 mm; zone of inhibition at 100 µg/disc [4]: 10 mm; zone of inhibition at 100 µg/disc [5]: 16 mm; zone of inhibition at 100 µg/disc [6]: 16 mm

**Q.** Which zone of inhibition at 100 µg/disc [1] does the source give for `O=c1[nH]c2ccccc2n(Cn2nnc3ccccc32)c1=O` here?
**A.** 28 mm

**Q.** And the zone of inhibition at 100 µg/disc [2]?
**A.** 39 mm

**Q.** And the zone of inhibition at 100 µg/disc [3]?
**A.** 34 mm

**Q.** What about the zone of inhibition at 100 µg/disc [4] of the same compound?
**A.** 20 mm

**Q.** What about the zone of inhibition at 100 µg/disc [5] of the same compound?
**A.** 39 mm

**Q.** What about the zone of inhibition at 100 µg/disc [6] of the same compound?
**A.** 29 mm

**Q.** What does the source list for `O=c1[nH]c2ccccc2n(CN(c2ccccc2)c2ccccc2)c1=O`?
**A.** zone of inhibition at 100 µg/disc [1]: 28 mm; zone of inhibition at 100 µg/disc [2]: 35 mm; zone of inhibition at 100 µg/disc [3]: 30 mm; zone of inhibition at 100 µg/disc [4]: 20 mm; zone of inhibition at 100 µg/disc [5]: 30 mm; zone of inhibition at 100 µg/disc [6]: 26 mm

**Q.** What does the source list for `O=C1c2ccccc2C(=O)N1Cn1c(=O)c(=O)[nH]c2ccccc21`?
**A.** zone of inhibition at 100 µg/disc [1]: 23 mm; zone of inhibition at 100 µg/disc [2]: 34 mm; zone of inhibition at 100 µg/disc [3]: 31 mm; zone of inhibition at 100 µg/disc [4]: 23 mm; zone of inhibition at 100 µg/disc [5]: 30 mm; zone of inhibition at 100 µg/disc [6]: 29 mm

**Q.** Which zone of inhibition at 100 µg/disc [1] does the source give for `O=C(/C=C/c1ccccc1)n1c(=O)c(=O)[nH]c2ccccc21` here?
**A.** 24 mm

**Q.** What about the zone of inhibition at 100 µg/disc [2] of the same compound?
**A.** 29 mm

**Q.** What about the zone of inhibition at 100 µg/disc [3] of the same compound?
**A.** 30 mm

**Q.** What about the zone of inhibition at 100 µg/disc [4] of the same compound?
**A.** 18 mm

**Q.** And the zone of inhibition at 100 µg/disc [5]?
**A.** 26 mm

**Q.** What about the zone of inhibition at 100 µg/disc [6] of the same compound?
**A.** 20 mm

**Q.** With `CN(C)c1ccc(/C=C/C(=O)n2c(=O)c(=O)[nH]c3ccccc32)cc1` as the compound, how does the zone of inhibition at 100 µg/disc [1] read?
**A.** 0 mm

**Q.** What about the zone of inhibition at 100 µg/disc [2] of the same compound?
**A.** 31 mm

**Q.** And the zone of inhibition at 100 µg/disc [3]?
**A.** 33 mm

**Q.** What about the zone of inhibition at 100 µg/disc [4] of the same compound?
**A.** 0 mm

**Q.** What about the zone of inhibition at 100 µg/disc [5] of the same compound?
**A.** 33 mm

**Q.** And the zone of inhibition at 100 µg/disc [6]?
**A.** 18 mm

**Q.** Which zone of inhibition at 100 µg/disc [1] does the source give for `CC1=NNC(=O)C1Cn1c(=O)c(=O)[nH]c2ccccc21` (stereo not given) here?
**A.** 23 mm

**Q.** What about the zone of inhibition at 100 µg/disc [2] of the same compound?
**A.** 39 mm

**Q.** What about the zone of inhibition at 100 µg/disc [3] of the same compound?
**A.** 32 mm

**Q.** What about the zone of inhibition at 100 µg/disc [4] of the same compound?
**A.** 21 mm

**Q.** What about the zone of inhibition at 100 µg/disc [5] of the same compound?
**A.** 37 mm

**Q.** And the zone of inhibition at 100 µg/disc [6]?
**A.** 33 mm

**Q.** For `Clc1ccccc1C(c1ccccc1)(c1ccccc1)n1ccnc1` [CLOTRIMAZOLE], which zone of inhibition at 50 µg/disc [7] is on record?
**A.** 13 mm

**Q.** What about the zone of inhibition at 50 µg/disc [8] of the same compound?
**A.** 21 mm

**Q.** Which results are given for `CCn1cc(C(=O)O)c(=O)c2ccc(C)nc21` [NALIDIXIC ACID]?
**A.** zone of inhibition at 50 µg/disc [9]: 22 mm; zone of inhibition at 50 µg/disc [10]: 34 mm; zone of inhibition at 50 µg/disc [11]: 24 mm; zone of inhibition at 50 µg/disc [12]: 25 mm
